{"source": "patent US10815230B2", "about": "“Casein kinase 1 delta inhibitor” (ELECTROPHORETICS LIMITED, priority 2015, dated 2020)", "test_in_all_cases": "KINOMEscan binding assay", "conditions_in_all_cases": "read-out: % Ctrl @ 10000 nM", "key": {"[1]": {"target": "PIK3CA (H1047Y) (Homo sapiens, UniProt P42336, H1047Y)"}, "[2]": {"target": "TNK1 (Homo sapiens, UniProt Q13470)", "sequence (Q13470 whole entry)": "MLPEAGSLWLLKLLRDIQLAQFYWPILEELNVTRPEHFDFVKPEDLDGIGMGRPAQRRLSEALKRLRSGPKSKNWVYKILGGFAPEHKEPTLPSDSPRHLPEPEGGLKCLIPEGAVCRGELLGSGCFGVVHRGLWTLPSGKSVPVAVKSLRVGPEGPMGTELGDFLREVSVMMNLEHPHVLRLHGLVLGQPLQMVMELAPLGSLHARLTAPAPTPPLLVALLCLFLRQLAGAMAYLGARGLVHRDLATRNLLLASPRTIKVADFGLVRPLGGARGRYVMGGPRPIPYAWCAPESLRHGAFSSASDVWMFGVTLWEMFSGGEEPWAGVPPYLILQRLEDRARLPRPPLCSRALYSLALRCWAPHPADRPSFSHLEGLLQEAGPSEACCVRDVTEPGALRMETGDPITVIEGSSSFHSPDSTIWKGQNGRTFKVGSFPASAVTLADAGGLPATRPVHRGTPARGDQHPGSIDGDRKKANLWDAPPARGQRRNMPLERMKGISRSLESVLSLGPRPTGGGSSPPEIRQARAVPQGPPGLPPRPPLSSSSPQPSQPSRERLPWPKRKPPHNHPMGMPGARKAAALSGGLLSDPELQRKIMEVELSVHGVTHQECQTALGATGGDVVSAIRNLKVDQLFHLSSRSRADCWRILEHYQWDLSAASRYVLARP"}, "[3]": {"target": "TAK1 (Homo sapiens, UniProt O43318)"}, "[4]": {"target": "PRKCE (Homo sapiens, UniProt Q02156)"}, "[5]": {"target": "BRAF (V600E) (Homo sapiens, UniProt P15056, V600E)", "sequence (P15056 whole entry V600E)": "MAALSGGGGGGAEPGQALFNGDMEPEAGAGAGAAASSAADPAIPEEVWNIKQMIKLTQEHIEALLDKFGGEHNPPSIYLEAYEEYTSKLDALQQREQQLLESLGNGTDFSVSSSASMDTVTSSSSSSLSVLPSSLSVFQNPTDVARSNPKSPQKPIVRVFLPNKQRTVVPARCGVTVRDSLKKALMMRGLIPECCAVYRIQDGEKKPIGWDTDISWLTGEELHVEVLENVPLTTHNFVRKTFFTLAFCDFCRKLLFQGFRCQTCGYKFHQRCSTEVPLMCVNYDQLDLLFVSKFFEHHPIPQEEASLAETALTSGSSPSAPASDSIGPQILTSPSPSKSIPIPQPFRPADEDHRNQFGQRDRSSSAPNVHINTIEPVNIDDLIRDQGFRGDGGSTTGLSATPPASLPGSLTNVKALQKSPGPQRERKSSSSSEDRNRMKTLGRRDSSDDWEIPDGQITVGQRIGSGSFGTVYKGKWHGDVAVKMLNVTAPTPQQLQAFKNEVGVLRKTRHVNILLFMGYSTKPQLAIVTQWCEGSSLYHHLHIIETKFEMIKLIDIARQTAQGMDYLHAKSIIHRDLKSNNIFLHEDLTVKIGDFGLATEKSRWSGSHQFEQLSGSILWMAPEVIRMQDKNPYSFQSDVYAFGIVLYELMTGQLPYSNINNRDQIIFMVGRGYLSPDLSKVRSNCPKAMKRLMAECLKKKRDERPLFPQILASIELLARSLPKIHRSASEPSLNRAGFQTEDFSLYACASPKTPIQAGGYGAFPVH"}, "[6]": {"target": "ERK1 (Homo sapiens, UniProt P27361)", "sequence (P27361 whole entry)": "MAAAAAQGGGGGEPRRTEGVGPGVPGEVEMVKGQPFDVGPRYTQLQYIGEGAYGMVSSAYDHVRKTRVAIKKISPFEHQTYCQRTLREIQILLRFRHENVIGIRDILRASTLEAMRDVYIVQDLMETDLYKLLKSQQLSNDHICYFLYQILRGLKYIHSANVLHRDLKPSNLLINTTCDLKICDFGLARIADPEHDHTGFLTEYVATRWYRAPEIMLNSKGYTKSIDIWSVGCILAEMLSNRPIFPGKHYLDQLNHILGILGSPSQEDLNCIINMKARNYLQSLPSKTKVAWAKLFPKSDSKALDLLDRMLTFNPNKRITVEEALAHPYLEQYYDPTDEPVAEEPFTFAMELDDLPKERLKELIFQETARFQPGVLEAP"}, "[7]": {"target": "ERK3 (Homo sapiens, UniProt Q16659)"}, "[8]": {"target": "PHKG2 (Homo sapiens, UniProt P15735)", "sequence (P15735 whole entry)": "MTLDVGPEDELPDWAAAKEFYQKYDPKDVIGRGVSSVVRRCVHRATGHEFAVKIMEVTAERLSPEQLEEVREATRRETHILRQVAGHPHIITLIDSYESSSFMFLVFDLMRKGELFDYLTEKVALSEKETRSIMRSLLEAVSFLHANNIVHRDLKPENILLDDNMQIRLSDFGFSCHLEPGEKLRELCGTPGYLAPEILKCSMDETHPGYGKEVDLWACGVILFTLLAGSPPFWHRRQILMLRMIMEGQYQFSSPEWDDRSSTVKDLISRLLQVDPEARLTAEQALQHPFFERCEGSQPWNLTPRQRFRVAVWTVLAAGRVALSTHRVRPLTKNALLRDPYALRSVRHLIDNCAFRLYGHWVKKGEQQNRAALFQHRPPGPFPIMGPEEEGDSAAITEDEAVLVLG"}, "[9]": {"target": "T1, MAP3K4 (Homo sapiens, UniProt Q9Y6R4)", "T1 construct": "T7 phage fusion (most assays) or DNA label after HEK293 expression; purchased DiscoveRx (KINOMEscan, LeadHunter Discovery services); host or cells: T7 phage in E. coli (BL21-derived) or HEK293"}, "[10]": {"target": "PRKCH (Homo sapiens, UniProt P24723)"}, "[11]": {"target": "MEK2 (Homo sapiens, UniProt P36507)", "sequence (P36507 whole entry)": "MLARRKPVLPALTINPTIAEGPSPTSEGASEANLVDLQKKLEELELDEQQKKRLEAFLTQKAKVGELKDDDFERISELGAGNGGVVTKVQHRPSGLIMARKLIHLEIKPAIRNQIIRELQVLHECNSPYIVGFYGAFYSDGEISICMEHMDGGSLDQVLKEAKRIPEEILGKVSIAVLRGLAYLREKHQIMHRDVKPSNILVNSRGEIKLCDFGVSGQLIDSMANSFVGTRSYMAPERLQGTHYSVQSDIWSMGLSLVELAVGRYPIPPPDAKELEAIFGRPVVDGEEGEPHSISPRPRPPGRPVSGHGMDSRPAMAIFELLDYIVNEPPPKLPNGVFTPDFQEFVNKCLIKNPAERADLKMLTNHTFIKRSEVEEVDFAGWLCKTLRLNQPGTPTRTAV"}, "[12]": {"target": "CSNK1G1 (Homo sapiens, UniProt Q9HCP0)"}, "[13]": {"target": "RET (V804M) (Homo sapiens, UniProt P07949, V804M)"}, "[14]": {"target": "EPHB1 (Homo sapiens, UniProt P54762)"}, "[15]": {"target": "IRAK3 (Homo sapiens, UniProt Q9Y616)"}, "[16]": {"target": "EGFR (Homo sapiens, UniProt P00533)"}, "[17]": {"target": "ERN1 (Homo sapiens, UniProt O75460)"}, "[18]": {"target": "BTK (Homo sapiens, UniProt Q06187)"}, "[19]": {"target": "CDKL5 (Homo sapiens, UniProt O76039)"}, "[20]": {"target": "MEK5 (Homo sapiens, UniProt Q13163)"}, "[21]": {"target": "SGK2 (Homo sapiens, UniProt Q9HBY8)", "sequence (Q9HBY8 whole entry)": "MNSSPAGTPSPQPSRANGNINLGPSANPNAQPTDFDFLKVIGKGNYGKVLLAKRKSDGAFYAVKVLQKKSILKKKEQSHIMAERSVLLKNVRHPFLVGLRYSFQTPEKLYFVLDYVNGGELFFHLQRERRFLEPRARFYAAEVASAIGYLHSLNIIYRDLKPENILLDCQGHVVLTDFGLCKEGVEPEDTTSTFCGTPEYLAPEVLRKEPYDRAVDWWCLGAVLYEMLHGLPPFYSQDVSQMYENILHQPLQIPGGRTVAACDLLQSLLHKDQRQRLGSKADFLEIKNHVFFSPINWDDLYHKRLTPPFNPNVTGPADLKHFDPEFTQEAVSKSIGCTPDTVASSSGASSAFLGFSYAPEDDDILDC"}, "[22]": {"target": "RSK4 Kin.Dom.1-N-terminal (Homo sapiens, UniProt Q9UK32)"}, "[23]": {"target": "CDK5 (Homo sapiens, UniProt Q00535)"}, "[24]": {"target": "ARK5 (Homo sapiens, UniProt O60285)"}, "[25]": {"target": "EPHA8 (Homo sapiens, UniProt P29322)"}, "[26]": {"target": "MAP3K2 (Homo sapiens, UniProt Q9Y2U5)"}, "[27]": {"target": "CAMK2A (Homo sapiens, UniProt Q9UQM7)"}, "[28]": {"target": "DLK (Homo sapiens, UniProt Q12852)"}, "[29]": {"target": "DRAK2 (Homo sapiens, UniProt O94768)"}, "[30]": {"target": "MYLK4 (Homo sapiens, UniProt Q86YV6)"}, "[31]": {"target": "EGFR (L747-S752del, P753S) (Homo sapiens, UniProt P00533, DEL747-752/P753S)"}, "[32]": {"target": "STK16 (Homo sapiens, UniProt O75716)", "sequence (O75716 whole entry)": "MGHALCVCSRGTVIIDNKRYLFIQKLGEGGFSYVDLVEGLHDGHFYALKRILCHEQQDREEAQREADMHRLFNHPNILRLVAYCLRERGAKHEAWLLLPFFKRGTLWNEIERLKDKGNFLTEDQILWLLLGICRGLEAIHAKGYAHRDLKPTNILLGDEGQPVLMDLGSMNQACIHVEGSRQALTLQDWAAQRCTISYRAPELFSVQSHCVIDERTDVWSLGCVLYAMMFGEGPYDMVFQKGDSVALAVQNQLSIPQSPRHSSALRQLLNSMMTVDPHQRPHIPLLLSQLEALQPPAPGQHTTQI"}, "[33]": {"target": "SBK1 (Homo sapiens, UniProt Q52WX2)", "sequence (Q52WX2 whole entry)": "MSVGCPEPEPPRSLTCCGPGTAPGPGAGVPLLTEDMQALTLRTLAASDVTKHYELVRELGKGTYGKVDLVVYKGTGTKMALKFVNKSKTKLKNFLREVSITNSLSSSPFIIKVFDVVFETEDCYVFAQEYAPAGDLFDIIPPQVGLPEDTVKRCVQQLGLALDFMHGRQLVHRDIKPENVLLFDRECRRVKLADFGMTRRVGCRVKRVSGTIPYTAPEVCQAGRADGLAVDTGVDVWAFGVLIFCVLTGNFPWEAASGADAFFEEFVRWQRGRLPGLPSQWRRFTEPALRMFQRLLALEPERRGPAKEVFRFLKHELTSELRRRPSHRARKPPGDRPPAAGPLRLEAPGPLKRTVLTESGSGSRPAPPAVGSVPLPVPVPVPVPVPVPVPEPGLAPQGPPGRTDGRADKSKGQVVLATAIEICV"}, "[34]": {"target": "FRK (Homo sapiens, UniProt P42685)"}, "[35]": {"target": "NEK5 (Homo sapiens, UniProt Q6P3R8)", "sequence (Q6P3R8 whole entry)": "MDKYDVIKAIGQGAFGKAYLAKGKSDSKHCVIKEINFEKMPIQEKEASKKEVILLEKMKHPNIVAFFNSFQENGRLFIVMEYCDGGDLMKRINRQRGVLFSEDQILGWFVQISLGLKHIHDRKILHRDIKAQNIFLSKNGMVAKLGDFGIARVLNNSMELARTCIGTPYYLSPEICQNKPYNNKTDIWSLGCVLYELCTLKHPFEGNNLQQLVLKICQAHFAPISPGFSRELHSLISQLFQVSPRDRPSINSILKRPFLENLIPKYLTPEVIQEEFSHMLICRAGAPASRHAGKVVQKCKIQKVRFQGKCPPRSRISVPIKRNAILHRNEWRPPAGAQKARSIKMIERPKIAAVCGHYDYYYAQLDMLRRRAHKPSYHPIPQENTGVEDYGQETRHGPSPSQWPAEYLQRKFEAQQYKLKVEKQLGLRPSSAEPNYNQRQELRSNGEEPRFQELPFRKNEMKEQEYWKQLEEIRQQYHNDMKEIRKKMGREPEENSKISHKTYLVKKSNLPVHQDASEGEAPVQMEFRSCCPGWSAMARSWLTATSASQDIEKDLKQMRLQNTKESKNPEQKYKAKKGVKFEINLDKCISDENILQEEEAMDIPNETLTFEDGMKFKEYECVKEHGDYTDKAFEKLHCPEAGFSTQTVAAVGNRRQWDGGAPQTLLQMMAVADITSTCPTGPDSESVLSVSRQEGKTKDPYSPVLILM"}, "[36]": {"target": "ADCK4 (Homo sapiens, UniProt Q96D53)"}, "[37]": {"target": "PLK3 (Homo sapiens, UniProt Q9H4B4)"}, "[38]": {"target": "PIK3CA (M1043I) (Homo sapiens, UniProt P42336, M1043I)"}, "[39]": {"target": "AKT2 (Homo sapiens, UniProt P31751)"}, "[40]": {"target": "NEK2 (Homo sapiens, UniProt P51955)", "sequence (P51955 whole entry)": "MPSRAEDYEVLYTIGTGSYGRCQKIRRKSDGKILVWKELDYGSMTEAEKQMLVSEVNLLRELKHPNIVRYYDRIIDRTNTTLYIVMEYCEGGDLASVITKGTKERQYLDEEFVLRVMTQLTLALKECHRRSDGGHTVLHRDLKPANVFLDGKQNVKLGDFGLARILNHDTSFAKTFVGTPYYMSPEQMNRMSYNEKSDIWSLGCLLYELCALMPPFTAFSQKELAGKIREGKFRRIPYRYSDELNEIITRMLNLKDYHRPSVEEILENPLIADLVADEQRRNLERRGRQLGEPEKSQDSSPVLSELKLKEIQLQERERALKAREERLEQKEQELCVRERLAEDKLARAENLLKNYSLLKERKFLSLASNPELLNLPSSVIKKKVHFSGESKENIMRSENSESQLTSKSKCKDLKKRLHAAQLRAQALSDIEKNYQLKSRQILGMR"}, "[41]": {"target": "CDK9 (Homo sapiens, UniProt P50750)"}}}
{"compound": "Nc1ncc(-c2nc3ccccc3o2)c(-c2ccncc2)n1", "note": "[Comparative Compound 324, 5-(1,3-benzoxazol-2-yl)-4-(pyridine-4-yl)pyrimidin-2-amine]", "values": [{"measurement": "remaining binding at 10 µM", "setting": "[1]", "result": 72, "unit": "%"}, {"measurement": "remaining binding at 10 µM", "setting": "[2]", "result": 97, "unit": "%"}, {"measurement": "remaining binding at 10 µM", "setting": "[3]", "result": 81, "unit": "%"}, {"measurement": "remaining binding at 10 µM", "setting": "[4]", "result": 95, "unit": "%"}, {"measurement": "remaining binding at 10 µM", "setting": "[5]", "result": 59, "unit": "%"}, {"measurement": "remaining binding at 10 µM", "setting": "[6]", "result": 96, "unit": "%"}, {"measurement": "remaining binding at 10 µM", "setting": "[7]", "result": 100, "unit": "%"}, {"measurement": "remaining binding at 10 µM", "setting": "[8]", "result": 100, "unit": "%"}, {"measurement": "remaining binding at 10 µM", "setting": "[9]", "result": 51, "unit": "%"}, {"measurement": "remaining binding at 10 µM", "setting": "[10]", "result": 99, "unit": "%"}, {"measurement": "remaining binding at 10 µM", "setting": "[11]", "result": 82, "unit": "%"}, {"measurement": "remaining binding at 10 µM", "setting": "[12]", "result": 93, "unit": "%"}, {"measurement": "remaining binding at 10 µM", "setting": "[13]", "result": 100, "unit": "%"}, {"measurement": "remaining binding at 10 µM", "setting": "[14]", "result": 86, "unit": "%"}, {"measurement": "remaining binding at 10 µM", "setting": "[15]", "result": 90, "unit": "%"}, {"measurement": "remaining binding at 10 µM", "setting": "[16]", "result": 100, "unit": "%"}, {"measurement": "remaining binding at 10 µM", "setting": "[17]", "result": 88, "unit": "%"}, {"measurement": "remaining binding at 10 µM", "setting": "[18]", "result": 92, "unit": "%"}, {"measurement": "remaining binding at 10 µM", "setting": "[19]", "result": 97, "unit": "%"}, {"measurement": "remaining binding at 10 µM", "setting": "[20]", "result": 66, "unit": "%"}, {"measurement": "remaining binding at 10 µM", "setting": "[21]", "result": 100, "unit": "%"}, {"measurement": "remaining binding at 10 µM", "setting": "[22]", "result": 85, "unit": "%"}, {"measurement": "remaining binding at 10 µM", "setting": "[23]", "result": 100, "unit": "%"}, {"measurement": "remaining binding at 10 µM", "setting": "[24]", "result": 100, "unit": "%"}, {"measurement": "remaining binding at 10 µM", "setting": "[25]", "result": 94, "unit": "%"}, {"measurement": "remaining binding at 10 µM", "setting": "[26]", "result": 87, "unit": "%"}, {"measurement": "remaining binding at 10 µM", "setting": "[27]", "result": 99, "unit": "%"}, {"measurement": "remaining binding at 10 µM", "setting": "[28]", "result": 91, "unit": "%"}, {"measurement": "remaining binding at 10 µM", "setting": "[29]", "result": 87, "unit": "%"}, {"measurement": "remaining binding at 10 µM", "setting": "[30]", "result": 98, "unit": "%"}, {"measurement": "remaining binding at 10 µM", "setting": "[31]", "result": 57, "unit": "%"}, {"measurement": "remaining binding at 10 µM", "setting": "[32]", "result": 89, "unit": "%"}, {"measurement": "remaining binding at 10 µM", "setting": "[33]", "result": 83, "unit": "%"}, {"measurement": "remaining binding at 10 µM", "setting": "[34]", "result": 100, "unit": "%"}, {"measurement": "remaining binding at 10 µM", "setting": "[35]", "result": 100, "unit": "%"}, {"measurement": "remaining binding at 10 µM", "setting": "[36]", "result": 100, "unit": "%"}, {"measurement": "remaining binding at 10 µM", "setting": "[37]", "result": 99, "unit": "%"}, {"measurement": "remaining binding at 10 µM", "setting": "[38]", "result": 100, "unit": "%"}, {"measurement": "remaining binding at 10 µM", "setting": "[39]", "result": 100, "unit": "%"}, {"measurement": "remaining binding at 10 µM", "setting": "[40]", "result": 98, "unit": "%"}, {"measurement": "remaining binding at 10 µM", "setting": "[41]", "result": 83, "unit": "%"}]}
{"compound": "CNc1c(C(N)=O)c2ccccn2c1C(=O)c1ccc(F)cc1", "note": "[Compound A, 2-methyl-amino-3-[(4-fluorophenyl)carbonyl]indolizine-1-carboxamide]", "values": [{"measurement": "remaining binding at 10 µM", "setting": "[1]", "result": 80, "unit": "%"}, {"measurement": "remaining binding at 10 µM", "setting": "[2]", "result": 99, "unit": "%"}, {"measurement": "remaining binding at 10 µM", "setting": "[3]", "result": 56, "unit": "%"}, {"measurement": "remaining binding at 10 µM", "setting": "[4]", "result": 96, "unit": "%"}, {"measurement": "remaining binding at 10 µM", "setting": "[5]", "result": 86, "unit": "%"}, {"measurement": "remaining binding at 10 µM", "setting": "[6]", "result": 100, "unit": "%"}, {"measurement": "remaining binding at 10 µM", "setting": "[7]", "result": 88, "unit": "%"}, {"measurement": "remaining binding at 10 µM", "setting": "[8]", "result": 91, "unit": "%"}, {"measurement": "remaining binding at 10 µM", "setting": "[9]", "result": 35, "unit": "%"}, {"measurement": "remaining binding at 10 µM", "setting": "[10]", "result": 95, "unit": "%"}, {"measurement": "remaining binding at 10 µM", "setting": "[11]", "result": 24, "unit": "%"}, {"measurement": "remaining binding at 10 µM", "setting": "[12]", "result": 88, "unit": "%"}, {"measurement": "remaining binding at 10 µM", "setting": "[13]", "result": 100, "unit": "%"}, {"measurement": "remaining binding at 10 µM", "setting": "[14]", "result": 69, "unit": "%"}, {"measurement": "remaining binding at 10 µM", "setting": "[15]", "result": 60, "unit": "%"}, {"measurement": "remaining binding at 10 µM", "setting": "[16]", "result": 49, "unit": "%"}, {"measurement": "remaining binding at 10 µM", "setting": "[17]", "result": 84, "unit": "%"}, {"measurement": "remaining binding at 10 µM", "setting": "[18]", "result": 88, "unit": "%"}, {"measurement": "remaining binding at 10 µM", "setting": "[19]", "result": 94, "unit": "%"}, {"measurement": "remaining binding at 10 µM", "setting": "[20]", "result": 51, "unit": "%"}, {"measurement": "remaining binding at 10 µM", "setting": "[21]", "result": 100, "unit": "%"}, {"measurement": "remaining binding at 10 µM", "setting": "[22]", "result": 64, "unit": "%"}, {"measurement": "remaining binding at 10 µM", "setting": "[23]", "result": 81, "unit": "%"}, {"measurement": "remaining binding at 10 µM", "setting": "[24]", "result": 85, "unit": "%"}, {"measurement": "remaining binding at 10 µM", "setting": "[25]", "result": 59, "unit": "%"}, {"measurement": "remaining binding at 10 µM", "setting": "[26]", "result": 73, "unit": "%"}, {"measurement": "remaining binding at 10 µM", "setting": "[27]", "result": 70, "unit": "%"}, {"measurement": "remaining binding at 10 µM", "setting": "[28]", "result": 84, "unit": "%"}, {"measurement": "remaining binding at 10 µM", "setting": "[29]", "result": 87, "unit": "%"}, {"measurement": "remaining binding at 10 µM", "setting": "[30]", "result": 43, "unit": "%"}, {"measurement": "remaining binding at 10 µM", "setting": "[31]", "result": 11, "unit": "%"}, {"measurement": "remaining binding at 10 µM", "setting": "[32]", "result": 81, "unit": "%"}, {"measurement": "remaining binding at 10 µM", "setting": "[33]", "result": 77, "unit": "%"}, {"measurement": "remaining binding at 10 µM", "setting": "[34]", "result": 58, "unit": "%"}, {"measurement": "remaining binding at 10 µM", "setting": "[35]", "result": 91, "unit": "%"}, {"measurement": "remaining binding at 10 µM", "setting": "[36]", "result": 84, "unit": "%"}, {"measurement": "remaining binding at 10 µM", "setting": "[37]", "result": 85, "unit": "%"}, {"measurement": "remaining binding at 10 µM", "setting": "[38]", "result": 100, "unit": "%"}, {"measurement": "remaining binding at 10 µM", "setting": "[39]", "result": 98, "unit": "%"}, {"measurement": "remaining binding at 10 µM", "setting": "[40]", "result": 92, "unit": "%"}, {"measurement": "remaining binding at 10 µM", "setting": "[41]", "result": 74, "unit": "%"}]}
